From BigSolDB 2.1

Which solubility (mole fraction) (in DMF, 278.15 K) does the source give for O=C(NC(=O)c1c(F)cccc1F)Nc1cc(Cl)c(F)c(Cl)c1F here?
Its solubility (mole fraction) is 0.174.

And the solubility (mole fraction) (in DMF, 283.15 K)?
The solubility (mole fraction) was 0.186.

And the solubility (mole fraction) (in DMF, 288.15 K)?
Its solubility (mole fraction) is 0.2.

What about the solubility (mole fraction) (in DMF, 293.15 K) of the same molecule?
The solubility (mole fraction) was 0.213.

What about the solubility (mole fraction) (in DMF, 298.15 K) of the same molecule?
The solubility (mole fraction) was 0.228.

What about the solubility (mole fraction) (in DMF, 303.15 K) of the same molecule?
Its solubility (mole fraction) is 0.243.

What about the solubility (mole fraction) (in DMF, 308.15 K) of the same molecule?
Its solubility (mole fraction) is 0.26.

What about the solubility (mole fraction) (in DMF, 313.15 K) of the same molecule?
Its solubility (mole fraction) is 0.275.

And the solubility (mole fraction) (in DMF, 318.15 K)?
The solubility (mole fraction) was 0.292.

And the solubility (mole fraction) (in DMF, 323.15 K)?
Its solubility (mole fraction) is 0.308.

And the solubility (mole fraction) (in ethanol, 278.15 K)?
Its solubility (mole fraction) is 0.0485.

And the solubility (mole fraction) (in ethanol, 283.15 K)?
Its solubility (mole fraction) is 0.0515.

What about the solubility (mole fraction) (in ethanol, 288.15 K) of the same molecule?
The solubility (mole fraction) was 0.0549.

What about the solubility (mole fraction) (in ethanol, 293.15 K) of the same molecule?
The solubility (mole fraction) was 0.0582.

And the solubility (mole fraction) (in ethanol, 298.15 K)?
Its solubility (mole fraction) is 0.0614.

What about the solubility (mole fraction) (in ethanol, 303.15 K) of the same molecule?
The solubility (mole fraction) was 0.0647.

And the solubility (mole fraction) (in ethanol, 308.15 K)?
Its solubility (mole fraction) is 0.0676.

What about the solubility (mole fraction) (in ethanol, 313.15 K) of the same molecule?
The solubility (mole fraction) was 0.0708.

What about the solubility (mole fraction) (in ethanol, 318.15 K) of the same molecule?
The solubility (mole fraction) was 0.0744.

And the solubility (mole fraction) (in ethanol, 323.15 K)?
The solubility (mole fraction) was 0.0782.

What about the solubility (mole fraction) (in methanol, 278.15 K) of the same molecule?
Its solubility (mole fraction) is 0.0672.

And the solubility (mole fraction) (in methanol, 283.15 K)?
The solubility (mole fraction) was 0.0729.

And the solubility (mole fraction) (in methanol, 288.15 K)?
Its solubility (mole fraction) is 0.0792.

And the solubility (mole fraction) (in methanol, 293.15 K)?
Its solubility (mole fraction) is 0.0854.

And the solubility (mole fraction) (in methanol, 298.15 K)?
Its solubility (mole fraction) is 0.0925.

And the solubility (mole fraction) (in methanol, 303.15 K)?
Its solubility (mole fraction) is 0.1.

What about the solubility (mole fraction) (in methanol, 308.15 K) of the same molecule?
Its solubility (mole fraction) is 0.108.

And the solubility (mole fraction) (in methanol, 313.15 K)?
The solubility (mole fraction) was 0.116.

And the solubility (mole fraction) (in methanol, 318.15 K)?
The solubility (mole fraction) was 0.124.

What about the solubility (mole fraction) (in methanol, 323.15 K) of the same molecule?
The solubility (mole fraction) was 0.133.

And the solubility (mole fraction) (in propylene glycol, 278.15 K)?
The solubility (mole fraction) was 0.0199.

And the solubility (mole fraction) (in propylene glycol, 283.15 K)?
The solubility (mole fraction) was 0.0212.

What about the solubility (mole fraction) (in propylene glycol, 288.15 K) of the same molecule?
The solubility (mole fraction) was 0.0227.

What about the solubility (mole fraction) (in propylene glycol, 293.15 K) of the same molecule?
The solubility (mole fraction) was 0.0241.

And the solubility (mole fraction) (in propylene glycol, 298.15 K)?
Its solubility (mole fraction) is 0.0255.

What about the solubility (mole fraction) (in propylene glycol, 303.15 K) of the same molecule?
Its solubility (mole fraction) is 0.0269.

And the solubility (mole fraction) (in propylene glycol, 308.15 K)?
Its solubility (mole fraction) is 0.0282.

What about the solubility (mole fraction) (in propylene glycol, 313.15 K) of the same molecule?
The solubility (mole fraction) was 0.0296.

And the solubility (mole fraction) (in propylene glycol, 318.15 K)?
The solubility (mole fraction) was 0.0311.

What about the solubility (mole fraction) (in propylene glycol, 323.15 K) of the same molecule?
The solubility (mole fraction) was 0.0327.

What about the solubility (mole fraction) (in water, 278.15 K) of the same molecule?
Its solubility (mole fraction) is 6.82e-06.

And the solubility (mole fraction) (in water, 283.15 K)?
The solubility (mole fraction) was 7.49e-06.

And the solubility (mole fraction) (in water, 288.15 K)?
Its solubility (mole fraction) is 8.19e-06.

What about the solubility (mole fraction) (in water, 293.15 K) of the same molecule?
The solubility (mole fraction) was 8.88e-06.

What about the solubility (mole fraction) (in water, 298.15 K) of the same molecule?
Its solubility (mole fraction) is 9.72e-06.

What about the solubility (mole fraction) (in water, 303.15 K) of the same molecule?
Its solubility (mole fraction) is 1.07e-05.

And the solubility (mole fraction) (in water, 308.15 K)?
The solubility (mole fraction) was 1.17e-05.

What about the solubility (mole fraction) (in water, 313.15 K) of the same molecule?
Its solubility (mole fraction) is 1.26e-05.

And the solubility (mole fraction) (in water, 318.15 K)?
Its solubility (mole fraction) is 1.36e-05.

What about the solubility (mole fraction) (in water, 323.15 K) of the same molecule?
Its solubility (mole fraction) is 1.47e-05.
